Laboratory results published in patent US4010264A, “7-[3-Substituted isoxazol-5-yl]-acetamido-cephalosporanic acids and their anti-bacterial use” (Koninklijke Nederlandsche Gist-en Spiritusfabriek N.V., priority 1970, dated 1977).
Values after ≈ are worked out from the molar mass of the structure shown. Where a name gives a salt, the structure may show the parent alone.

What was measured:
[1] = tested on: Bacillus subtilis ATCC 6633; assay: MIC, agar serial dilution test; type: cell-based; conditions: ATCC6633; Bacillus subtilis ATCC 6633; 24 hours at 37° C; read-out: MIC
[2] = tested on: Pasteurella multocida A723; assay: MIC, agar serial dilution test; type: cell-based; conditions: Pasteurella multocida A723; 24 hours at 37° C; read-out: MIC
[3] = tested on: serum protein; assay: binding to serum protein; type: in vitro ADME; conditions: serum protein
[4] = tested on: Brucella melitensis A488; assay: microbe, parasite or virus in culture; type: cell-based; conditions: A488, 24 h
[5] = tested on: Staphylococcus aureus A355 (penicillinase-producing); assay: MIC, agar serial dilution test; conditions: 24 h
[6] = tested on: Streptococcus haemolyticus A266; assay: MIC, agar serial dilution test; type: cell-based; conditions: Streptococcus haemolyticus A266; 24 hours at 37° C; read-out: MIC
[7] = tested on: Klebsiella pneumoniae A809; assay: MIC, agar serial dilution test; type: cell-based; conditions: Klebsiella pneumoniae A809; 24 hours at 37° C; read-out: MIC
[8] = tested on: Streptococcus faecalis L 80; assay: MIC, agar serial dilution test; type: cell-based; conditions: Enterococcus faecalis, L80; Streptococcus faecalis L 80; 24 hours at 37° C; read-out: MIC
[9] = tested on: Staphylococcus aureus A55; assay: MIC, agar serial dilution test; type: cell-based; conditions: Staphylococcus aureus A55; 24 hours at 37° C; read-out: MIC
[10] = tested on: Staphylococcus aureus A 2001; assay: in vivo infection test in mice; conditions: A2001, in Mus musculus
[11] = tested on: Staphylococcus aureus A 321; assay: prophylactic experiment against an infection in mice; type: in vivo, female mice (Swiss)
Text: B. Activity of the compound of example III in a prophylactic experiment against an infection with Staphylococcus aureus A 321. […] Administered doses: Tested compound dissolved in physiological NaCl-solution. Group A: one dose administered four hours before the intraperitoneal infection Group B: one dose administered two hours before the intraperitoneal infection.

[12] = tested on: Staphylococcus aureus A 2000; assay: in vivo infection test in mice; conditions: A2000, in Mus musculus
[13] = tested on: Staphylococcus aureus A 321; assay: in vivo infection test in mice; conditions: A321, in Mus musculus
[14] = tested on: Staphylococcus aureus A321; assay: MIC, agar serial dilution test; type: cell-based; conditions: Staphylococcus aureus A321; 24 hours at 37° C; read-out: MIC
[15] = tested on: Staphylococcus aureus L160a (penicillinase-producing); assay: MIC, agar serial dilution test; conditions: 24 h
[16] = in vivo; parameters: species or system rabbits; conditions: rabbit, im, 50 mg/kg
Text: C. Serum levels of the tested compound and dicloxacillin.

[17] = tested on: Diplococcus pneumoniae L 54; assay: MIC, agar serial dilution test; type: cell-based; conditions: Streptococcus pneumoniae, L54; Diplococcus pneumoniae L 54; 24 hours at 37° C; read-out: MIC
[18] = tested on: Salmonella typhi murium R 172; assay: in vivo infection test in mice; conditions: Salmonella enterica, in Mus musculus
[19] = tested on: Proteus mirabilis O.T.; assay: in vivo infection test in mice; conditions: in Mus musculus
[20] = tested on: Pseudomonas aeruginosa A 1058; assay: in vivo infection test in mice; conditions: A1058, in Mus musculus

| Compound | MIC [1] [mg/L] | MIC [2] [mg/L] | MIC [4] [mg/L] | MIC [5] [mg/L] | MIC [6] [mg/L] | MIC [7] [mg/L] | MIC [8] [mg/L] | MIC [9] [mg/L] | ED50 ([10]; ip) [mg/kg] | ED50 ([10]; po) [mg/kg] | ED50 ([10]; sc) [mg/kg] | ED50 ([13]; po) [mg/kg] | ED50 ([13]; sc) [mg/kg] | MIC [14] [mg/L] | MIC [15] [mg/L] | MIC [17] [mg/L] | other results |
| --- | --- | --- | --- | --- | --- | --- | --- | --- | --- | --- | --- | --- | --- | --- | --- | --- | --- |
| Cc1onc(-c2c(Cl)cccc2Cl)c1C(=O)N[C@@H]1C(=O)N2[C@@H]1SC(C)(C)[C@@H]2C(=O)O [Dicloxacillin, reference compound] | 0.12 (≈ 0.255 µM) | 6 (≈ 12.8 µM) | > 100 | 0.5 (≈ 1.06 µM) | 0.06 (≈ 0.128 µM) | 25 (≈ 53.2 µM) | 12.5 (≈ 26.6 µM) | 0.06 (≈ 0.128 µM) | 1.71 | 110 | 133 | 92.6 | 126 | 0.12 (≈ 0.255 µM) | 0.25 (≈ 0.532 µM) | 0.5 (≈ 1.06 µM) | binding to serum protein (in words) [3]: almost completely bound to serum protein; ED50 ([11]; A321, ip, 2 h, Group B: one dose two hours before i.p. infection, administration i.p.): 46.5 to 100 mg/kg; ED50 ([11]; A321, ip, 4 h, Group A: one dose four hours before i.p. infection, administration i.p.): < 21.5 mg/kg; ED50 ([11]; A321, po, 2 h, Group B: one dose two hours before i.p. infection, administration per os): 215 to 465 mg/kg; ED50 ([11]; A321, po, 4 h, Group A: one dose four hours before i.p. infection, administration per os): 46.5 to 100 mg/kg; ED50 ([12]; ip): 5.84 mg/kg; ED50 ([12]; po): 92.6 mg/kg; ED50 ([12]; sc): 92.6 mg/kg; Cmax at 1 h [16]: 27 µg/mL; Tmax [16]: 1 h; concentration at 1 h [16]: 27 µg/mL; concentration at 2 h [16]: 18.8 µg/mL; concentration at 4 h [16]: 7.1 µg/mL; blood level ([16]; 4 h): 7.1 µg/mL |
| CC(=O)OCC1=C(C(=O)O)N2C(=O)C(NC(=O)Cc3cc(-c4c(C)cc(C)cc4C)no3)C2SC1 (centres unmarked) [VII, Sodium salt of 7-{[3-(2,4,6-trimethyl)phenylisoxazol-5-yl]acetamido}cephalosporanic acid] | 0.015 | 50 | 12.5 | 0.25 | 0.03 | 50 | 1 | 0.06 | 17.1 | > 215 | 140 | 70 | 18.5 | 0.06 | 0.12 | 0.03 | ED50 ([18]; ip): > 215 mg/kg; ED50 ([18]; po): > 215 mg/kg; ED50 ([19]; ip): > 215 mg/kg; ED50 ([19]; po): ~215 mg/kg; ED50 ([20]; ip): > 215 mg/kg; ED50 ([20]; po): > 215 mg/kg; ED50 ([13]; ip): 3.8 mg/kg |
